One may read the IC50 as the point on the concentration scale where inhibition reaches its midpoint. Read a high IC50 as lower potency.

Counter-ions that a name gives are not always drawn.

The target in the assay is SHP2 (Homo sapiens (Human), UniProt Q06124). Briefly: SHP2 Allosteric Inhibition Assay (DiFMUP prompt fluorescence). The format is biochemical. The settings on record: 0.25 nM SHP2 activated with 0.5 μM peptide IRS1_pY1172(dPEG8)pY1222; substrate DiFMUP 100 μM; 25° C.
Chain of SHP2 (Q06124 whole entry): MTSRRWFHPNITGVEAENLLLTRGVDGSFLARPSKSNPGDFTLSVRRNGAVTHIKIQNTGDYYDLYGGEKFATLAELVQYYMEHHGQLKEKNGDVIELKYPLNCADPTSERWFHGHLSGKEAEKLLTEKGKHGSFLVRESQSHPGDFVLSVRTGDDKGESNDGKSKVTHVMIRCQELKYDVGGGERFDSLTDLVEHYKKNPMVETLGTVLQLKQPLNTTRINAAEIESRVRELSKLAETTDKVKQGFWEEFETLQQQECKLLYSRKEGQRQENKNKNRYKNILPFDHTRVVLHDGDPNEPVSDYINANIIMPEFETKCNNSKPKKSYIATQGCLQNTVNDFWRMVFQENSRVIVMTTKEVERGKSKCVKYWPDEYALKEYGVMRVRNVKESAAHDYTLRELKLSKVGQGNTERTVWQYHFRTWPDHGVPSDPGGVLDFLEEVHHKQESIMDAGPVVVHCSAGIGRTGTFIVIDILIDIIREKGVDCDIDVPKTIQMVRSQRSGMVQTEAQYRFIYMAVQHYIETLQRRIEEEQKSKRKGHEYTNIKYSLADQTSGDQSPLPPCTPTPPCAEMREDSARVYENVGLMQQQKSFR
For `CC1(N)CCN(c2cnc3c(N4CCc5ccccc54)n[nH]c3n2)CC1` [Compound 21], the IC50 is less than 1000 nM. In turn, `CC1(N)CCN(c2cnc3c(N4CCCn5nccc54)n[nH]c3n2)CC1` [Compound 22] had an IC50 of less than 1000 nM. Turning to `CC1(CN)CCN(c2cnc3c(N4CCCc5ncccc54)n[nH]c3n2)C1` (stereo not drawn) [Compound 26, (1-(3-(3,4-dihydro-1,5-naphthyridin-1(2H)-yl)-1H-pyrazolo[3,4-b]pyrazin-6-yl)-3-methylpyrrolidin-3-yl)methanamine dihydrochloride], the IC50 was less than 1000 nM. As for `CC1(N)CCN(c2cnc3c(N4CCCc5ccncc54)n[nH]c3n2)CC1` [Compound 27], the figure is no less than 10000 nM; as for `CC1(N)CCN(c2cnc3c(N4CCNc5ccccc54)n[nH]c3n2)CC1` [Compound 29], 1000 to 10000 nM. For `CC1(N)CCN(c2cnc3c(N4CCCc5cnccc54)n[nH]c3n2)CC1` [Compound 30] the value was 1000 to 10000 nM. Take `CC1(N)CCN(c2cnc3c(N4CCOc5ncccc54)n[nH]c3n2)CC1` [Compound 31]: the IC50 is less than 1000 nM. For `CC1(N)CCN(c2cnc3c(N4CCC(=O)c5ccccc54)n[nH]c3n2)CC1` [Compound 32] the value was less than 1000 nM; for `CC1(CN)CCN(c2cnc3c(N4CCCc5ccccc54)n[nH]c3n2)CC1` [Compound 33, (1-(3-(3,4-dihydroquinolin-1(2H)-yl)-1H-pyrazolo[3,4-b]pyrazin-6-yl)-4-methylpiperidin-4-yl)methanamine], less than 1000 nM; for `CC1CCc2ccccc2N1c1n[nH]c2nc(N3CCC(C)(N)CC3)cnc12` (stereo not drawn) [Compound 34], less than 1000 nM. As for `C[C@H]1CCc2ccccc2N1c1n[nH]c2nc(N3CCC(C)(N)CC3)cnc12` [Compound 35], the IC50 was less than 1000 nM.

`C[C@@H]1CCc2ccccc2N1c1n[nH]c2nc(N3CCC(C)(N)CC3)cnc12` [Compound 36] returned an IC50 of 1000 to 10000 nM.

Consider `CC1Cc2ccccc2N(c2n[nH]c3nc(N4CCC(C)(N)CC4)cnc23)C1` (stereo not drawn) [Compound 38], for which the IC50 was 1000 to 10000 nM. For the compound `CC1(N)CCN(c2cnc3c(N4C(=O)CCc5ncccc54)n[nH]c3n2)CC1` [Compound 39, 1-(6-(4-amino-4-methylpiperidin-1-yl)-1H-pyrazolo[3,4-b]pyrazin-3-yl)-3,4-dihydro-1,5-naphthyridin-2(1H)-one], the IC50 lay in the range of 1000 to 10000 nM. For `CC1(CN)CCN(c2cnc3c(N4CCCc5cccnc54)n[nH]c3n2)CC1` [Compound 40] the value was 1000 to 10000 nM. The compound `CC1(N)CCN(c2cnc3c(N4CCCc5c4ccnc5N)n[nH]c3n2)CC1` [Compound 42, 1-(6-(4-amino-4-methylpiperidin-1-yl)-1H-pyrazolo[3,4-b]pyrazin-3-yl)-1,2,3,4-tetrahydro-1,6-naphthyridin-5-amine] came in with an IC50 of 1000 to 10000 nM. `CC1(N)CCN(c2cnc3c(N4CCCn5c4cccc5=O)n[nH]c3n2)CC1` [Compound 43]: the IC50 was no less than 10000 nM. Compound `Cc1ccc2c(c1)N(c1n[nH]c3nc(N4CCC(C)(CN)CC4)cnc13)CCC2` [Compound 44] displayed an IC50 of 1000 to 10000 nM. In turn, `Cc1ccc2c(c1)CCCN2c1n[nH]c2nc(N3CCC(C)(CN)CC3)cnc12` [Compound 45] came in with an IC50 of less than 1000 nM. `Cc1cccc2c1CCCN2c1n[nH]c2nc(N3CCC(C)(CN)CC3)cnc12` [Compound 46] showed an IC50 of less than 1000 nM. In the case of `CC1(N)CCN(c2cnc3c(N4CCCC(c5ccccc5)C4)n[nH]c3n2)CC1` (stereo not drawn) [Compound 47], the half-maximal inhibitory concentration (IC50) lay in the range of 1000 to 10000 nM. In turn, `CC1CCN(c2n[nH]c3nc(N4CCC(C)(CN)CC4)cnc23)c2ccccc21` (stereo not drawn) [Compound 48] displayed an IC50 of less than 1000 nM. The compound `C[C@@H]1CCN(c2n[nH]c3nc(N4CCC(C)(CN)CC4)cnc23)c2ccccc21` [Compound 49, (R)-(4-methyl-1-(3-(4-methyl-3,4-dihydroquinolin-1(2H)-yl)-1H-pyrazolo[3,4-b]pyrazin-6-yl)piperidin-4-yl)methanamine] returned a half-inhibitory concentration (IC50) of less than 1000 nM. As for `C[C@H]1CCN(c2n[nH]c3nc(N4CCC(C)(CN)CC4)cnc23)c2ccccc21` [Compound 50, (S)-(4-methyl-1-(3-(4-methyl-3,4-dihydroquinolin-1(2H)-yl)-1H-pyrazolo[3,4-b]pyrazin-6-yl)piperidin-4-yl)methanamine], the 50% inhibitory concentration (IC50) is less than 1000 nM. Consider `CC1(CN)CCN(c2cnc3c(N4CCCc5nc(N)ccc54)n[nH]c3n2)CC1` [Compound 51, 5-(6-(4-(aminomethyl)-4-methylpiperidin-1-yl)-1H-pyrazolo[3,4-b]pyrazin-3-yl)-5,6,7,8-tetrahydro-1,5-naphthyridin-2-amine], for which the IC50 is less than 1000 nM. On to `CC1(CN)CCN(c2cnc3c(N4CCCc5c(F)cccc54)n[nH]c3n2)CC1` [Compound 52], for which the IC50 was less than 1000 nM. Take `NC1CCCC12CCN(c1cnc3c(N4CCCc5ncccc54)n[nH]c3n1)CC2` (stereo not drawn) [Compound 53, 8-(3-(3,4-dihydro-1,5-naphthyridin-1(2H)-yl)-1H-pyrazolo[3,4-b]pyrazin-6-yl)-8-azaspiro[4.5]decan-1-amine]: the IC50 was less than 1000 nM.

`CC1(N)CCN(c2cnc3c(N4CCCc5cc(C(N)=O)ccc54)n[nH]c3n2)CC1` [Compound 54, 1-(6-(4-amino-4-methylpiperidin-1-yl)-1H-pyrazolo[3,4-b]pyrazin-3-yl)-1,2,3,4-tetrahydroquinoline-6-carboxamide] returned an IC50 of less than 1000 nM. In the case of `NC1CCOC12CCN(c1cnc3c(N4CCCc5ncccc54)n[nH]c3n1)CC2` (stereo not drawn) [Compound 55, 8-(3-(3,4-dihydro-1,5-naphthyridin-1(2H)-yl)-1H-pyrazolo[3,4-b]pyrazin-6-yl)-1-oxa-8-azaspiro[4.5]decan-4-amine], the IC50 was less than 1000 nM.

`CC(=O)N1CCN(c2n[nH]c3nc(N4CCC(C)(N)CC4)cnc23)c2ccccc21` [Compound 56] registered an IC50 of less than 1000 nM. Take `COc1cccc2c1CCCN2c1n[nH]c2nc(N3CCC(C)(CN)CC3)cnc12` [Compound 57]: the 50% inhibitory concentration (IC50) was less than 1000 nM. Consider `CC1(CN)CCN(c2cnc3c(N4CCCc5cc(C(N)=O)ccc54)n[nH]c3n2)CC1` [Compound 58, 1-(6-(4-(aminomethyl)-4-methylpiperidin-1-yl)-1H-pyrazolo[3,4-b]pyrazin-3-yl)-1,2,3,4-tetrahydroquinoline-6-carboxamide], for which the IC50 is less than 1000 nM.

Consider `CC1(N)CCN(c2cnc3c(N4CCCc5c(-c6ccccn6)cccc54)n[nH]c3n2)CC1` [Compound 59], for which the 50% inhibitory concentration (IC50) was less than 1000 nM. In turn, `CC1(N)CCN(c2cnc3c(N4CCCc5c(-c6cccnc6)cccc54)n[nH]c3n2)CC1` [Compound 60] gave an IC50 of less than 1000 nM. For `Cn1cc(-c2cccc3c2CCCN3c2n[nH]c3nc(N4CCC(C)(N)CC4)cnc23)cn1` [Compound 61], the IC50 was less than 1000 nM. On to `Cn1cc(-c2ccc3c(n2)CCCN3c2n[nH]c3nc(N4CCC(C)(N)CC4)cnc23)cn1` [Compound 62], for which the IC50 is less than 1000 nM.

In the case of `CC1(CN)CCN(c2cnc3c(N4CCCc5cc(C(F)(F)F)ccc54)n[nH]c3n2)CC1` [Compound 63], the half-inhibitory concentration (IC50) is less than 1000 nM. The compound `CC1(N)CCN(c2cnc3c(N4CCCc5c(-c6nccs6)cccc54)n[nH]c3n2)CC1` [Compound 64] registered an IC50 of less than 1000 nM.

`CC1(CN)CCN(c2cnc3c(N4CCCc5c(-c6ccccc6)cccc54)n[nH]c3n2)CC1` [Compound 65] gave a 50% inhibitory concentration (IC50) of less than 1000 nM. On to `CC1(CN)CCN(c2cnc3c(N4CCCc5c(-c6cccnc6)cccc54)n[nH]c3n2)CC1` [Compound 66], for which the IC50 is less than 1000 nM. Regarding `Cc1ccncc1-c1cccc2c1CCCN2c1n[nH]c2nc(N3CCC(C)(N)CC3)cnc12` [Compound 67], the IC50 was less than 1000 nM.

`CC1(CN)CCN(c2cnc3c(N4CCN(c5cccnc5)c5ccccc54)n[nH]c3n2)CC1` [Compound 68] returned an IC50 of less than 1000 nM.

`CC1(CN)CCN(c2cnc3c(N4CCCc5c(-c6ccc(F)cc6)cccc54)n[nH]c3n2)CC1` [Compound 69]: the concentration for half-maximal inhibition (IC50) is less than 1000 nM. `CC1(CN)CCN(c2cnc3c(N4CCCc5c(-c6ccc(F)c(F)c6)cccc54)n[nH]c3n2)CC1` [Compound 70]: the IC50 was less than 1000 nM. Turning to `CC1(N)CCN(c2cnc3c(N4CCCc5c(-c6nc(C(=O)O)cs6)cccc54)n[nH]c3n2)CC1` [Compound 71, 2-(1-(6-(4-amino-4-methylpiperidin-1-yl)-1H-pyrazolo[3,4-b]pyrazin-3-yl)-1,2,3,4-tetrahydroquinolin-5-yl)thiazole-4-carboxylic acid], the IC50 is less than 1000 nM. With `CC1(CN)CCN(c2cnc3c(N4CCCc5c(-c6cc(F)c(F)c(F)c6)cccc54)n[nH]c3n2)CC1` [Compound 72], the IC50 is less than 1000 nM. In turn, `Cc1nnc2c(-c3cccc4c3CCCN4c3n[nH]c4nc(N5CCC(C)(CN)CC5)cnc34)cccn12` [Compound 73] displayed an IC50 of less than 1000 nM.

For the compound `CC1(CN)CCN(c2cnc3c(N4CCCc5c(-c6cccc(Oc7ccccc7)c6)cccc54)n[nH]c3n2)CC1` [Compound 75], the IC50 is less than 1000 nM. Regarding `NCC1(F)CCN(c2cnc3c(N4CCCc5ncccc54)n[nH]c3n2)CC1` [Compound 76], the IC50 was less than 1000 nM.

`CC1(CN)CCN(c2cnc3c(N4CCCc5cc(C#N)ccc54)n[nH]c3n2)CC1` [Compound 77] displayed a concentration for half-maximal inhibition (IC50) of less than 1000 nM.

For `CC1(CN)CCN(c2cnc3c(N4CCCc5c(C(F)F)cccc54)n[nH]c3n2)CC1` [Compound 78], the IC50 was less than 1000 nM. Take `CNC(=O)c1cccc2c1CCCN2c1n[nH]c2nc(N3CCC(C)(CN)CC3)cnc12` [Compound 79, 1-(6-(4-(Aminomethyl)-4-methylpiperidin-1-yl)-1H-pyrazolo[3,4-b]pyrazin-3-yl)-N-methyl-1,2,3,4-tetrahydroquinoline-5-carboxamide]: the IC50 was less than 1000 nM.

As for `CN(C)C(=O)c1cccc2c1CCCN2c1n[nH]c2nc(N3CCC(C)(CN)CC3)cnc12` [Compound 80, 1-(6-(4-(Aminomethyl)-4-methylpiperidin-1-yl)-1H-pyrazolo[3,4-b]pyrazin-3-yl)-N,N-dimethyl-1,2,3,4-tetrahydroquinoline-5-carboxamide], the IC50 is less than 1000 nM. As for `COC(=O)c1ccc2c(n1)CCCN2c1n[nH]c2nc(N3CCC(C)(CN)CC3)cnc12` [Compound 81], the figure is less than 1000 nM.

These data come from US11591336B2 (Relay Therapeutics, Inc., priority 2017, dated 2023).
